Series [1] concerns the target dopamine transporter (DAT) (Rattus norvegicus, UniProt P23977). In words: Dopamine reuptake ([^3H]dopamine uptake) inhibition in rat brain synaptosomes. The note with it: for efficacy of [^3H]DA (DAT) uptake inhibition, in words: partial versus full inhibition.
Setting [2] is: One-Site IC50 (nM), [^3H]DA uptake dose-response curve fit to one-component equation.
Where [3] appears, read: Two-Site IC50-1 (nM), [^3H]DA uptake dose-response curve fit to two-component equation, component 1.
Setting [4] is: Two-Site IC50-2 (nM), [^3H]DA uptake dose-response curve fit to two-component equation, component 2.
The mark [5] stands for this setting: read-out: Two-Site Emax-1 (% I).
[6] abbreviates: read-out: Two-Site Emax-2 (% I).
Where [7] appears, read: DA Uptake EC50 (nM ± SD), rat caudate synaptosomes, 5 nM [^3H]dopamine, 15 min, 25° C., three experiments pooled.
[8] abbreviates: read-out: DA Uptake Emax (% I ± SD).

Entries after “also recorded” stand apart in the source; their conditions may differ. Read-outs that look alike come from different tables or passages of the source.

The IC50 is the concentration that gives 50% inhibition. A lower IC50 goes with inhibition by little substance. One may read the Emax as the greatest response seen or fitted, relative to the assay's reference. For orientation: melting point means the temperature, or range, at which the solid turns liquid.

Sequence of dopamine transporter (DAT) (P23977 whole entry): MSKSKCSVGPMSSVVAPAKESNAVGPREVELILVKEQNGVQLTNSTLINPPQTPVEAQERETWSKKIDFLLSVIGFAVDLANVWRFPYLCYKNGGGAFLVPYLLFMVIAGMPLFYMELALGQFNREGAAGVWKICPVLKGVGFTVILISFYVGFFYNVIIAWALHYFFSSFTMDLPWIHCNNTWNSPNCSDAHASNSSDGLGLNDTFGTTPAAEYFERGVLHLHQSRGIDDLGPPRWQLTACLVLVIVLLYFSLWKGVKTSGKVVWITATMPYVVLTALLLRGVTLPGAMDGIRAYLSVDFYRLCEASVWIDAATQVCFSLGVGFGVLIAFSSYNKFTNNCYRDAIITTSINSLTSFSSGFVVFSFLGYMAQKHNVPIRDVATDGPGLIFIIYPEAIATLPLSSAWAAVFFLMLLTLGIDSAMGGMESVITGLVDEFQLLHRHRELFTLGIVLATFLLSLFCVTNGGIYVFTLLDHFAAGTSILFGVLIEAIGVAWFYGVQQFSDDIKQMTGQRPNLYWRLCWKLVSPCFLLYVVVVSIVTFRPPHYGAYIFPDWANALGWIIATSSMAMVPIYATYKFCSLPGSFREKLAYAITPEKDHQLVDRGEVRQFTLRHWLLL

With `CN(C)c1ccc(-c2nc(NCC(c3ccccc3)N3CCOCC3)c3ccccc3n2)cc1` (centres unmarked) [SRI-30835], the IC50 in series [1] (setting [2]) came out at 15 ± 7 nM; in series [1] (setting [3]) it was 6 ± 0.9 nM; in series [1] (setting [4]), 4000 ± 1330 nM. Also, the “efficacy of [^3H]DA (DAT) uptake inhibition, in words” value in series [1] is “partially inhibit”. Besides, the Emax in series [1] (read-out: One-Site Emax (% I)) stood at 75 ± 5%; in series [1] (setting [5]) it was 57 ± 2%; in series [1] (setting [6]) it was 42 ± 4%.

`CN(C)c1ccc(-c2nc(NCCc3ccccc3)c3ccccc3n2)cc1` [SRI-31335]: the values for the half-maximal inhibitory concentration (IC50) in series [1] (setting [2]), in series [1] (setting [3]) and in series [1] (setting [4]) were 156 ± 12 nM, 99 ± 63 nM and 564 ± 1180 nM, respectively. Also, in series [1], the “efficacy of [^3H]DA (DAT) uptake inhibition, in words” value is “fully inhibits; also recorded: full-efficacy [^3H]DA uptake inhibitors”. The Emax in series [1] (read-out: One-Site Emax (% I)) amounted to 100 ± 1.5%; in series [1] (setting [5]), 76 ± 54%; in series [1] (setting [6]) it was 27 ± 53%.

In the case of `c1ccc(C(CCNc2nc(-c3cccnc3)nc3ccccc23)c2ccccc2)cc1` [compound 1, N-(3,3-Diphenylpropyl)-2-(pyridin-3-yl)quinazolin-4-amine], in series [1] (setting [7]), the IC50 turned out to be 443 ± 88 nM. Besides, in series [1] (setting [8]), the maximum response (Emax) was 82 ± 3%.

In the case of `c1ccc(C(CNc2nc(-c3cccnc3)nc3ccccc23)c2ccccc2)cc1` [compound 2, N-(2,2-Diphenylethyl)-2-(pyridin-3-yl)quinazolin-4-amine], the IC50 in series [1] (setting [7]) amounted to 480 nM. Moreover, the Emax in series [1] (setting [8]) came out at 100%.

In series [1] (setting [7]), `c1ccc(C(Nc2nc(N3CCCCC3)nc3ccccc23)c2ccccc2)cc1` [compound 3, N-Benzhydryl-2-(piperidin-1-yl)quinazolin-4-amine] came in with a concentration for half-maximal inhibition (IC50) of 150 nM. Further, in series [1] (setting [8]), the Emax worked out at 100%.

In series [1] (setting [7]), `c1ccc(C(CNc2nc(N3CCCCC3)nc3ccccc23)c2ccccc2)cc1` [compound 4, N-(2,2-Diphenylethyl)-2-(piperidin-1-yl)quinazolin-4-amine] had an IC50 of 60 nM. Besides, the Emax in series [1] (setting [8]) is 100%.

With `c1ccc(C(CCNc2nc(-c3ccsc3)nc3ccccc23)c2ccccc2)cc1` [compound 5, N-(3,3-Diphenylpropyl)-2-(thiophen-3-yl)quinazolin-4-amine], in series [1] (setting [7]), half-maximal inhibition (IC50) was put at 416 ± 22 nM. For the same molecule, in series [1] (setting [8]), the Emax came to 83 ± 1%.

`c1ccc(C(Nc2nc(-c3cc4ccccc4s3)nc3ccccc23)c2ccccc2)cc1` [compound 8, N-Benzhydryl-2-(benzo[b]thiophen-2-yl)quinazolin-4-amine]: the melting point is 180 to 182 °C.

`c1ccc(C(CCNc2nc(-c3cc4ccccc4s3)nc3ccccc23)c2ccccc2)cc1` [compound 19, N-(3,3-Diphenylpropyl)-2-(Benzo [B]Thiophen-2-yl)Quinazolin-4-Amine] yielded a melting point of 201 to 203 °C.

For the molecule `c1ccc(C(CNc2nc(-c3cccc4cc[nH]c34)nc3ccccc23)c2ccccc2)cc1` [compound 33, N-(2,2-Diphenylethyl)-2-(1H-Indol-7-yl)Quinazolin-4-Amine], the melting point is 67 °C.

Consider `c1ccc(C(CNc2nc(-c3c[nH]c4ccccc34)nc3ccccc23)c2ccccc2)cc1` [compound 82, N-(2,2-Diphenylethyl)-2-(1H-Indol-3-yl)Quinazolin-4-Amine], for which the IC50 in series [1] (setting [7]) came out at 239 ± 84 nM. In addition, in series [1] (setting [8]), the maximum response (Emax) amounted to 93 ± 7%.

Take `c1ccc(C(CNc2nc(-c3ccc4c(c3)NCCC4)nc3ccccc23)c2ccccc2)cc1` [compound 83, N-(2,2-Diphenylethyl)-2-(1,2,3,4-Tetrahydroquinolin-7-yl)Quinazolin-4-Amine]: inhibition in series [1] (setting [7]) was half-maximal at 132 ± 43 nM (IC50). The maximum response (Emax) in series [1] (setting [8]) was 69 ± 4%.

With `c1ccc(C(CNc2nc(-c3ccc4c(c3)CCN4)nc3ccccc23)c2ccccc2)cc1` [compound 84, N-(2,2-Diphenylethyl)-2-(Indolin-5-yl)Quinazolin-4-Amine], the half-inhibitory concentration (IC50) in series [1] (setting [2]) stood at 18 ± 4 nM; in series [1] (setting [3]) it was 1.8e+06 nM; in series [1] (setting [4]) it was 1.8e+06 nM. In addition, the “efficacy of [^3H]DA (DAT) uptake inhibition, in words” value in series [1] is recorded as “partially inhibit; also recorded: partial inhibitors”. Moreover, the maximal response (Emax) in series [1] (setting [8]) is 75 ± 3%; in series [1] (read-out: One-Site Emax (% I)), 75 ± 3%; in series [1] (setting [5]), 37%; in series [1] (setting [6]), 37%.

In turn, `Nc1ncc(-c2nc(NCC(c3ccccc3)c3ccccn3)c3ccccc3n2)cn1` (centres unmarked) [compound 95, 2-(2-Aminopyrimidin-5-yl)-N-(2-Phenyl-2-(Pyridin-2-yl)Ethyl)Quinazolin-4-Amine] registered an IC50 in series [1] (setting [7]) of 385 ± 89 nM. The Emax in series [1] (setting [8]) amounted to 72 ± 4%.

In turn, `c1ccc(C(CNc2nc(-c3ccc4nccn4c3)nc3ccccc23)c2ncccn2)cc1` (centres unmarked) [compound 103, 2-(Imidazo[1,2-A]Pyridin-6-yl)-N-(2-Phenyl-2-(Pyrimidin-2-yl)Ethyl)Quinazolin-4-Amine] registered an IC50 in series [1] (setting [7]) of 553 ± 82 nM. Also, the maximal response (Emax) in series [1] (setting [8]) was determined as 73 ± 2%.

`c1ccc(C(CNc2nc(-c3ccc4nccn4c3)nc3ccccc23)c2ccncc2)cc1` (centres unmarked) [compound 106, 2-(Imidazo[1,2-A]Pyridin-6-yl)-N-(2-Phenyl-2-(Pyridin-4-yl)Ethyl)Quinazolin-4-Amine] had a half-maximal inhibitory concentration (IC50) in series [1] (setting [7]) of 11 ± 2 nM. Besides, in series [1] (setting [8]), the Emax was 77 ± 2%.

Take `c1ccc(C(CNc2nc(-c3ccc4nnnn4c3)nc3ccccc23)c2ccccc2)cc1` [compound 108, N-(2,2-Diphenylethyl)-2-(Tetrazolo[1,5-A]Pyridin-6-yl)Quinazolin-4-Amine]: half-maximal inhibition in series [1] (setting [7]) (IC50) required 229 ± 54 nM. In addition, the Emax in series [1] (setting [8]) was 47 ± 2%.

In series [1] (setting [7]), `c1ccc(C(CNc2nc(-c3ccc4nccn4c3)nc3ccccc23)n2ccnc2)cc1` (centres unmarked) [compound 115, N-(2-(1H-Imidazol-1-yl)-2-Phenylethyl)-2-(Imidazo[1,2-A]Pyridin-6-yl)Quinazolin-4-Amine] returned an IC50 of 83 ± 27 nM. The Emax in series [1] (setting [8]) came to 58 ± 3%.

`COCc1c[nH]c2ccc(-c3nc(NCC(c4ccccc4)c4ccccc4)c4ccccc4n3)cc12` [compound 116, N-(2,2-Diphenylethyl)-2-(3-(Methoxymethyl)-1H-Indol-5-yl)Quinazolin-4-Amine] gave an IC50 in series [1] (setting [7]) of 165 ± 15 nM. Besides, the Emax in series [1] (setting [8]) was found to be 69 ± 1%.

Regarding `c1ccc(C(CNc2nc(-c3cnc4nccn4c3)nc3ccccc23)N2CCCCC2)cc1` (centres unmarked) [compound 120, 2-(Imidazo[1,2-A]Pyrimidin-6-yl)-N-(2-Phenyl-2-(Piperidin-1-yl)Ethyl)Quinazolin-4-Amine], half-maximal inhibition in series [1] (setting [7]) (IC50) required 89 ± 27 nM. In addition, in series [1] (setting [8]), the Emax is 81 ± 4%.

`c1ccc(C(CNc2nc(-c3cnc4nccn4c3)nc3ccccc23)N2CCOCC2)cc1` (centres unmarked) [compound 128, 2-(Imidazo[1,2-A]Pyrimidin-6-yl)-N-(2-Morpholino-2-Phenylethyl)Quinazolin-4-Amine]: in series [1] (setting [7]), the IC50 is 55 ± 10 nM. Besides, the maximal response (Emax) in series [1] (setting [8]) was 69 ± 2%.

On to `CN1CCN(C(CNc2nc(-c3cnc4nccn4c3)nc3ccccc23)c2ccccc2)CC1` (centres unmarked) [compound 129, 2-(Imidazo[1,2-A]Pyrimidin-6-yl)-N-(2-(4Methylpiperazin-1-yl)-2-Phenylethyl)Quinazolin-4-Amine], for which inhibition in series [1] (setting [7]) was half-maximal at 49 ± 9 nM (IC50). Besides, in series [1] (setting [8]), the maximal effect (Emax) is 71 ± 2%.

In the case of `c1ccc(C(CNc2nc(-c3cnc4nccn4c3)nc3ccccc23)c2cccnc2)cc1` (centres unmarked) [compound 134, 2-(Imidazo[1,2-A]Pyrimidin-6-yl)-N-(2-Phenyl-2-(Pyridin-3-yl)Ethyl)Quinazolin-4-Amine], the midpoint of inhibition in series [1] (setting [7]), the IC50, lay at 31 ± 7 nM. For the same molecule, in series [1] (setting [8]), the Emax is 72 ± 3%.

Take `c1ccc(C(CNc2nc(-c3cccn4ccnc34)nc3ccccc23)c2ccccc2)cc1` [compound 147, N-(2,2-Diphenylethyl)-2-(Imidazo[1,2-A]pyridin-8-yl)Quinazolin-4-Amine]: the IC50 in series [1] (setting [7]) amounted to 92 ± 21 nM. For the same molecule, the Emax in series [1] (setting [8]) is 92 ± 4%.

`c1ccc2c(NCC(c3ccncc3)c3ccncc3)nc(-c3cnc4nccn4c3)nc2c1` [compound 176, N-(2,2-Di(Pyridin-4-yl)Ethyl)-2-(Imidazo[1,2-A]Pyrimidin-6-yl)Quinazolin-4-Amine] registered an IC50 in series [1] (setting [7]) of 299 ± 45 nM. Further, the maximal response (Emax) in series [1] (setting [8]) was found to be 70 ± 2%.

`Cc1cc2nccn2cc1-c1nc(NCC(c2ccccc2)C2CCCC2)c2ccccc2n1` (centres unmarked) [compound 194, N-(2-Cyclopentyl-2-Phenylethyl)-2-(7-Methylimidazo[1,2-A]pyridin-6-yl)Quinazolin-4-Amine] had an IC50 in series [1] (setting [7]) of 1.6 ± 0.3 nM. Besides, in series [1] (setting [8]), the maximal response (Emax) turned out to be 74 ± 2%.

Take `Cc1c(-c2nc(NCC(c3ccccc3)c3ccccc3)c3ccccc3n2)ccc2nccn12` [compound 195, N N-(2,2-Diphenylethyl)-2-(5-Methylimidazo[1,2-A]Pyridin-6-yl)Quinazolin-4-Amine]: the IC50 in series [1] (setting [7]) is 34 ± 6 nM. The Emax in series [1] (setting [8]) worked out at 74 ± 2%.

Molecule `Cc1cc2nccn2cc1-c1nc(NCC(c2ccccc2)N(C)C)c2ccccc2n1` (centres unmarked) [compound 196, N1,N1-Dimethyl-N2-(2-(7-Methylimidazo[1,2-A]Pyridin-6-yl)Quinazolin-4-yl)-1-Phenylethane-1,2-Diamine] came in with an IC50 in series [1] (setting [7]) of 14 ± 5 nM. Further, in series [1] (setting [8]), the Emax was determined as 77 ± 4%.

`Cc1ccc(-c2nc(NCC(c3ccccc3)c3ccccc3)c3ccccc3n2)c2nccn12` [compound 197, N-(2,2-Diphenylethyl)-2-(5-Methylimidazo[1,2-A]pyridin-8-yl)Quinazolin-4-Amine] returned an IC50 in series [1] (setting [7]) of 208 ± 34 nM. Moreover, in series [1] (setting [8]), the maximal effect (Emax) worked out at 92 ± 3%.

In series [1] (setting [7]), `c1ccc(C(CNc2nc(-c3cnc4ccnn4c3)nc3ccccc23)c2ccccc2)cc1` [compound 199, N-(2,2-Diphenylethyl)-2-(Pyrazolo[1,5-a]Pyrimidin-6-yl)Quinazolin-4-Amine] came in with an IC50 of 9.1 ± 2.1 nM. Also, in series [1] (setting [8]), the maximum response (Emax) came to 73 ± 3%.

Consider `FC(F)(F)c1cc2nccn2cc1-c1nc(NCC(c2ccccc2)c2ccccc2)c2ccccc2n1` [compound 200, N-(2,2-Diphenylethyl)-2-(7-(Trifluoromethyl)Imidazo[1,2-a]Pyridin-6-yl)Quinazolin-4-Amine], for which the IC50 in series [1] (setting [7]) amounted to 2.3 ± 0.3 nM. Further, in series [1] (setting [8]), the Emax turned out to be 74 ± 2%.

`Cc1cc2nccn2cc1-c1nc(NCC(c2ccc(F)cc2)c2ccc(F)cc2)c2ccccc2n1` [compound 203, N-(2,2-Bis(4-Fluorophenyl)Ethyl)-2-(7-Methylimidazo[1,2-a]Pyridin-6-yl)Quinazolin-4-Amine] returned an IC50 in series [1] (setting [7]) of 1.7 ± 0.2 nM. The maximal effect (Emax) in series [1] (setting [8]) is 72 ± 1%.
